Active and inactive are the calls of the source. The calls are words filed in the database; no cut-off is given here.

The source of these data is ChEMBL document CHEMBL3352340, “7-Amino-2-phenylpyrazolo[4,3-d]pyrimidine derivatives: structural investigations at the 5-position to target human A₁ and A(2A) adenosine receptors. Molecular modeling and pharmacological studies” (Eur J Med Chem, 2014).

Experiment [1] concerns the target T1, Adenosine receptor A1 (Homo sapiens) (UniProt P30542).
T1 sequence (whole entry): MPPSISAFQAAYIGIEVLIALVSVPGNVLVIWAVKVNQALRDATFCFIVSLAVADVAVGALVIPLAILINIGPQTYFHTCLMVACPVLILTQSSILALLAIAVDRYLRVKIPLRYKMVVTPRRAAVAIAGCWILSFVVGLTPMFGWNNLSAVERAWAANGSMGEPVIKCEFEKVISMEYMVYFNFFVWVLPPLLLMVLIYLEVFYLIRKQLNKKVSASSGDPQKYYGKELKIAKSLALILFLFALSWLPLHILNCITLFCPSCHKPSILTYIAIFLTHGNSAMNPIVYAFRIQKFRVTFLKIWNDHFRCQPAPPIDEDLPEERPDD
Kind of experiment: Displacement of [3H]-DPCPX from human adenosine A1 receptor expressed in CHO cells at 1 uM by scintillation counting analysis relative to control. The class given is cell-based. Background: Loss of bound radioactivity is the signal in a displacement assay; it reports binding, not function.

The target of experiment [2] is T2, Adenosine receptor A3 (Homo sapiens) (UniProt P0DMS8).
T2 sequence (whole entry): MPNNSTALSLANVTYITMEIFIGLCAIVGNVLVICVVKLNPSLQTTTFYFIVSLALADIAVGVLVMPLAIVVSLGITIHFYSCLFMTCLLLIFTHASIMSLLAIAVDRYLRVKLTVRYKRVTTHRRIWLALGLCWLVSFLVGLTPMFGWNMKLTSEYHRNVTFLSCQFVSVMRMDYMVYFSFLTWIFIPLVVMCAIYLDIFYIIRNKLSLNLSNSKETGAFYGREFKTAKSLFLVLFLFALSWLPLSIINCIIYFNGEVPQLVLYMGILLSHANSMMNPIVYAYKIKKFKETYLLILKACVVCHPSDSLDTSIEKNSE
Kind of experiment: Displacement of [3H]AB-MECA from human adenosine A3 receptor expressed in CHO cells at 1 uM by scintillation counting analysis relative to control. It counts as cell-based.

Experiment [3] deals with T3, Adenosine receptor A2b (Homo sapiens) (UniProt P29275).
T3 sequence (whole entry): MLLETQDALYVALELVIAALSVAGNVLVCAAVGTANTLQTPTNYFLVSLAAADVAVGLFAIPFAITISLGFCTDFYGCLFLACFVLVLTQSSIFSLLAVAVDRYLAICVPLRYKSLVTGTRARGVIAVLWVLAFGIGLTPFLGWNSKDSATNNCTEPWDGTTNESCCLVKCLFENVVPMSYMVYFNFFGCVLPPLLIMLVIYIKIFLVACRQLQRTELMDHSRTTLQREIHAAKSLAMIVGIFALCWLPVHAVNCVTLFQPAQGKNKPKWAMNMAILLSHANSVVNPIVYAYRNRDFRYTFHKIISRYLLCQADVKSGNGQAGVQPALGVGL
Kind of experiment: Antagonist activity at human adenosine A2B receptor expressed in CHO cells assessed as inhibition of NECA-stimulated cAMP level at 1 uM by scintillation counting analysis. The class given is functional, cell-based. Background: Changes in cAMP serve as a functional read-out for many G protein-coupled receptors.

In experiment [4] the target is T4, Adenosine receptor A2a (Homo sapiens, UniProt P29274). Kind of experiment: Displacement of [3H]ZM241385 from human adenosine A2A receptor expressed in CHO cells at 1 uM by scintillation counting analysis relative to control. It counts as cell-based.
T4 sequence (P29274 whole entry): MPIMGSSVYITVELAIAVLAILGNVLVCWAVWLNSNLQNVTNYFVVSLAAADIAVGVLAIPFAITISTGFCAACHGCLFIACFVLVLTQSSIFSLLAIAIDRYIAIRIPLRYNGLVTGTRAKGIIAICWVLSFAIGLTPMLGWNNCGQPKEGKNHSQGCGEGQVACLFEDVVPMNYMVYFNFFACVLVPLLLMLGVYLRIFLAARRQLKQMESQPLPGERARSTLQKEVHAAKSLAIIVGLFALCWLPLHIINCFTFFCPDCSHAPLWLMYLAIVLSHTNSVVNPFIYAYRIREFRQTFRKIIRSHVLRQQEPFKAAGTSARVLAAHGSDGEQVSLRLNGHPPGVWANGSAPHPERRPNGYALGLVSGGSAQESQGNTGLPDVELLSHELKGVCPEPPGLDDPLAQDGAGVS
For experiment [5], the target named is T4, Adenosine receptor A2a. Kind of experiment: Displacement of [3H]ZM241385 from human adenosine A2A receptor expressed in CHO cells by scintillation counting analysis. It counts as cell-based.
A further experiment addresses T5, Adenosine receptor A2b (Homo sapiens, UniProt P29275).
T5 sequence (P29275 whole entry): T3 sequence (whole entry)
Kind of experiment: Antagonist activity at human adenosine A2B receptor expressed in CHO cells assessed as inhibition of NECA-stimulated cAMP level by scintillation counting analysis. The class given is functional, cell-based.

Experiment [6] deals with T6, Adenosine receptor A1 (Homo sapiens, UniProt P30542).
T6 sequence (P30542 whole entry): T1 sequence (whole entry)
Kind of experiment: Antagonist activity at human adenosine A1 receptor expressed in CHO cells assessed as inhibition of CCPA-stimulated cAMP level by scintillation counting analysis. The class given is functional, cell-based.

The target in experiment [7] is T6, Adenosine receptor A1. Put plainly: Displacement of [3H]-DPCPX from human adenosine A1 receptor expressed in CHO cells by scintillation counting analysis. The class given is cell-based.
For experiment [8], the target named is T4, Adenosine receptor A2a. Kind of experiment: Antagonist activity at human adenosine A2A receptor expressed in CHO cells assessed as inhibition of NECA-stimulated cAMP level by scintillation counting analysis. It counts as functional, cell-based.
The target of another experiment is T7, Adenosine receptor A3 (Homo sapiens, UniProt P0DMS8).
T7 sequence (P0DMS8 whole entry): T2 sequence (whole entry)
Kind of experiment: Displacement of [3H]AB-MECA from human adenosine A3 receptor expressed in CHO cells by scintillation counting analysis. It counts as cell-based.

Experiment [9] addresses T1, Adenosine receptor A1 (Homo sapiens). As to conditions: CHO, 100 nM.
Description: Antagonist activity at human adenosine A1 receptor expressed in CHO cells assessed as inhibition of CCPA-stimulated cAMP level at 100 nM by scintillation counting analysis

For orientation: inhibition means the percentage by which the read-out fell short of the control. Turning to `Cc1cccc(Cc2nc(N)c3nn(-c4ccccc4)cc3n2)c1`, the inhibition in [1] was 41%; in experiment [2], 11%; in experiment [3] it was 21%; on Adenosine receptor A2a [4], 31%.

What is called Ki is the dissociation constant of the complex between target and ligand, obtained from inhibition or displacement. What is called IC50 is the midpoint of a concentration-inhibition curve. Regarding `Nc1nc(CCCc2ccccc2)nc2cn(-c3ccccc3)nc12`, the figures for the Ki at Adenosine receptor A2a [5] and at Adenosine receptor A1 [7] were 55 nM and 5.31 nM, respectively. Also, the results for the IC50 at Adenosine receptor A2b, at Adenosine receptor A1 [6] and on Adenosine receptor A2a [8] were 432 nM, 43 nM and 423 nM, respectively. Moreover, the inhibition turned out to be 12% in experiment [2] and 42% in [3].

Turning to `Nc1nc(Cc2cccc(C(F)(F)F)c2)nc2cn(-c3ccccc3)nc12`, the inhibition in [1] is 1%; in [2], 41%; in [3] it was 1%; at Adenosine receptor A2a [4], 21%.

Turning to `Nc1nc(CCCc2ccc(O)cc2)nc2cn(-c3ccccc3)nc12`, the inhibition constant (Ki) on Adenosine receptor A2a [5] is 722 nM; at Adenosine receptor A1 [7] it was 18 nM. The inhibition in experiment [2] is 20%; in experiment [3] it was 5%.

Take `Nc1nc(Cc2ccc(O)cc2)nc2cn(-c3ccccc3)nc12`: the inhibition in [1] is 39%; in experiment [2], 20%; in [3], 4%; at Adenosine receptor A2a [4] it was 44%.

Consider `COc1cccc(CCCc2nc(N)c3nn(-c4ccccc4)cc3n2)c1`, for which the Ki on Adenosine receptor A2a [5] is 147 nM; at Adenosine receptor A1 [7] it was 0.15 nM. The IC50 was 334 nM at Adenosine receptor A2b and 2.41 nM at Adenosine receptor A1 [6]. The inhibition in experiment [2] is 33%.

`COc1cccc(Cc2nc(N)c3nn(-c4ccccc4)cc3n2)c1` returned a Ki at Adenosine receptor A1 [7] of 90 nM. Moreover, the inhibition in [2] is 37%; in [3] it was 1%; at Adenosine receptor A2a [4], 14%.

With `Nc1ncnc2cn(-c3ccccc3)nc12`, the Ki at Adenosine receptor A2a [5] turned out to be 410 nM; at Adenosine receptor A1 [7], 80 nM. For the same compound, the IC50 on Adenosine receptor A2b is 630 nM. Besides, in experiment [2], the inhibition worked out at 4%.

The compound `Nc1nc(Cc2ccc3c(c2)OCO3)nc2cn(-c3ccccc3)nc12` returned a Ki at Adenosine receptor A1 [7] of 75 nM. Besides, the inhibition in experiment [2] came out at 14%; in experiment [3] it was 1%; at Adenosine receptor A2a [4], 2%.

Take `Nc1nc(Cc2cccc(Cl)c2)nc2cn(-c3ccccc3)nc12`: the inhibition stood at 32% in [1], 42% in experiment [2], 1% in experiment [3] and 6% on Adenosine receptor A2a [4].

On to `Cc1ccc(Cc2nc(N)c3nn(-c4ccccc4)cc3n2)cc1`, for which the inhibition worked out at 38% in [1], 39% in experiment [2], 21% in experiment [3] and 26% on Adenosine receptor A2a [4].

Take `Nc1nc(Cc2ccc(Cl)cc2)nc2cn(-c3ccccc3)nc12`: the inhibition in experiment [1] was 49%; in experiment [2] it was 11%; in [3] it was 1%; on Adenosine receptor A2a [4], 1%.

`COc1ccc(Cc2nc(N)c3nn(-c4ccccc4)cc3n2)cc1`: the inhibition came to 48% in [1], 38% in [2], 5% in experiment [3] and 20% at Adenosine receptor A2a [4].

For `Nc1nc(CCc2ccc(O)cc2)nc2cn(-c3ccccc3)nc12`, the Ki at Adenosine receptor A1 [7] is 420 nM. Further, the results for the inhibition (in [2]; in [3]; on Adenosine receptor A2a [4]) were 37%, 7% and 30%, respectively.

With `Nc1nc(Cc2ccccc2F)nc2cn(-c3ccccc3)nc12`, the inhibition constant (Ki) at Adenosine receptor A2a [5] worked out at 154 nM; at Adenosine receptor A1 [7] it was 35 nM. Also, the IC50 at Adenosine receptor A2b amounted to 123 nM. This compound showed an inhibition in experiment [2] of 37%.

As to `Nc1nc(CCCc2cccc(O)c2)nc2cn(-c3ccccc3)nc12`, the Ki on Adenosine receptor A2a [5] is 146 nM; at Adenosine receptor A1 [7], 0.22 nM. Besides, the results for the IC50 on Adenosine receptor A2b and at Adenosine receptor A1 [6] were 314 nM and 2.87 nM, respectively. This compound also had an inhibition in experiment [2] of 46%.

The compound `CCc1nc(N)c2nn(-c3ccccc3)cc2n1` had a Ki on Adenosine receptor A1 [7] of 90 nM. The inhibition in experiment [2] was 38%; in experiment [3] it was 49%; on Adenosine receptor A2a [4], 38%.

Consider `CC(C)Cc1nc(N)c2nn(-c3ccccc3)cc2n1`, for which the inhibition in experiment [1] was determined as 49%; in experiment [2], 13%; in experiment [3] it was 1%; at Adenosine receptor A2a [4] it was 50%.

Turning to `C=CCOc1ccc(CCCc2nc(N)c3nn(-c4ccccc4)cc3n2)cc1`, the inhibition was determined as 40% in experiment [1], 3% in experiment [2], 3% in [3] and 15% on Adenosine receptor A2a [4].

Regarding `Nc1nc(Cc2ccccc2O)nc2cn(-c3ccccc3)nc12`, the Ki worked out at 97 nM at Adenosine receptor A3, 89 nM on Adenosine receptor A2a [5] and 64 nM at Adenosine receptor A1 [7]. For the same compound, the inhibition in experiment [3] came to 1%.

Consider `COc1ccccc1CCCc1nc(N)c2nn(-c3ccccc3)cc2n1`, for which the Ki on Adenosine receptor A2a [5] amounted to 153 nM; at Adenosine receptor A1 [7], 1.31 nM. Besides, the figures for the IC50 at Adenosine receptor A2b and at Adenosine receptor A1 [6] were 387 nM and 12 nM, respectively. This compound also returned an inhibition in experiment [2] of 47%.

Regarding `CC(C)c1nc(N)c2nn(-c3ccccc3)cc2n1`, the inhibition in [1] is 2%; in [2], 11%; in experiment [3], 5%; at Adenosine receptor A2a [4] it was 22%.

On to `Nc1nc(Cc2cccc(O)c2)nc2cn(-c3ccccc3)nc12`, for which the Ki at Adenosine receptor A3 was found to be 435 nM; at Adenosine receptor A2a [5], 521 nM; on Adenosine receptor A1 [7], 312 nM. In experiment [3], the inhibition was determined as 1%.

For `OC[C@H]1O[C@@H](n2cnc3c(NC4CCCC4)nc(Cl)nc32)[C@H](O)[C@@H]1O`, the inhibition result in [9] was “Active”.

Take `COc1ccc(CCCc2nc(N)c3nn(-c4ccccc4)cc3n2)cc1`: the Ki turned out to be 790 nM at Adenosine receptor A2a [5] and 16 nM on Adenosine receptor A1 [7]. The results for the inhibition in experiment [2] and in [3] were 1% and 30%, respectively.

On to `Nc1nc(/C=C/c2ccccc2)nc2cn(-c3ccccc3)nc12`, for which, on Adenosine receptor A1 [7], the affinity corresponds to a Ki of 480 nM. Further, the values for the inhibition (in experiment [2]; in [3]; on Adenosine receptor A2a [4]) were 25%, 7% and 21%, respectively.

As to `COc1ccccc1Cc1nc(N)c2nn(-c3ccccc3)cc2n1`, the Ki at Adenosine receptor A3 amounted to 572 nM; at Adenosine receptor A2a [5] it was 213 nM; on Adenosine receptor A1 [7] it was 375 nM. The inhibition in experiment [3] is 1%.

Take `Nc1nc(CCCc2ccc(OCc3ccccc3)cc2)nc2cn(-c3ccccc3)nc12`: the inhibition in experiment [1] was 14%; in experiment [2], 2%; in [3] it was 8%; at Adenosine receptor A2a [4], 3%.

In the case of `Nc1nc(CCc2ccccc2)nc2cn(-c3ccccc3)nc12`, the inhibition in [1] was 15%; in experiment [2] it was 17%; in [3], 2%; on Adenosine receptor A2a [4], 35%.

Turning to `Nc1nc(CCCc2ccccc2O)nc2cn(-c3ccccc3)nc12`, the results for the Ki on Adenosine receptor A2a [5] and at Adenosine receptor A1 [7] were 102 nM and 0.54 nM, respectively. For the same compound, the IC50 on Adenosine receptor A2b came to 247 nM; at Adenosine receptor A1 [6], 4.26 nM. The inhibition in experiment [2] is 36%.

`COc1ccc(CCc2nc(N)c3nn(-c4ccccc4)cc3n2)cc1` gave an inhibitory constant (Ki) at Adenosine receptor A1 [7] of 380 nM. For the same compound, the inhibition turned out to be 22% in experiment [2], 9% in experiment [3] and 13% at Adenosine receptor A2a [4].

For the compound `Nc1nc(Cc2ccccc2Cl)nc2cn(-c3ccccc3)nc12`, affinity at Adenosine receptor A1 [7] was put at a Ki of 155 nM. Moreover, the figures for the inhibition (in experiment [2]; in [3]; at Adenosine receptor A2a [4]) were 22%, 3% and 44%, respectively.
